Measured values taken from patent US5561113A, “New pseudopeptide compounds of neurokinins” (priority 1994, dated 1996).
Structures can show the parent of a compound that is named as a salt.

Assays:
[1] = molecular target: T1, NK3 receptors (Rattus norvegicus, UniProt P16177); test: Isolated smooth muscle: rat portal vein (RatPV), NK3-mediated contraction; format: biochemical
T1 construct: three preparations isolated from smooth muscle were used; from tissue; host or cells: rat portal vein
T1 sequence (P16177 1-452): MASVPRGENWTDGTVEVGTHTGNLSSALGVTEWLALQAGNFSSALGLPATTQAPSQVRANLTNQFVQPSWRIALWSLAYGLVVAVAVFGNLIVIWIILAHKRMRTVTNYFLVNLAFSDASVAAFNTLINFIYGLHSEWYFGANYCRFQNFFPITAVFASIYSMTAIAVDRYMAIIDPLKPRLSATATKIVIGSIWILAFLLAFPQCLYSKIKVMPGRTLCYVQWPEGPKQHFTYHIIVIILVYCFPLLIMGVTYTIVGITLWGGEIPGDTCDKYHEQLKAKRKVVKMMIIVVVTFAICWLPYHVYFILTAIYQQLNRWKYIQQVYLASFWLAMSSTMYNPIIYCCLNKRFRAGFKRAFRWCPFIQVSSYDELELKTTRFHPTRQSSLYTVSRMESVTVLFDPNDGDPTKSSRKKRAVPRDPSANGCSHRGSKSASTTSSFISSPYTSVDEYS
Text: (§1) In order to evaluate the functional activity of the compounds of the invention as antagonists of neurokinins, three preparations isolated from smooth muscle were used: rabbit vena cava (RVC), endothelium-free rabbit pulmonary artery (RPA) and rat portal vein (RatPV) whose contractile responses are respectively mediated by the NK1, NK2 and NK3 receptors as indicated by D. JUKIC et al. (Life Sci. 1991, 49, 1463-1469).
(§2) The antagonistic power of the compounds of the invention was expressed in the form of pA2 as defined by O. […] and H. O. SCHILD (Brit. J. Pharmacol. 1959, 14, 48-58).

[2] = molecular target: T2, NK1 receptors (Oryctolagus cuniculus, UniProt G1SEI7); test: Isolated smooth muscle: rabbit vena cava (RVC), NK1-mediated contraction; format: biochemical
T2 construct: three preparations isolated from smooth muscle were used; from tissue; host or cells: rabbit vena cava
T2 sequence (G1SEI7 1-407): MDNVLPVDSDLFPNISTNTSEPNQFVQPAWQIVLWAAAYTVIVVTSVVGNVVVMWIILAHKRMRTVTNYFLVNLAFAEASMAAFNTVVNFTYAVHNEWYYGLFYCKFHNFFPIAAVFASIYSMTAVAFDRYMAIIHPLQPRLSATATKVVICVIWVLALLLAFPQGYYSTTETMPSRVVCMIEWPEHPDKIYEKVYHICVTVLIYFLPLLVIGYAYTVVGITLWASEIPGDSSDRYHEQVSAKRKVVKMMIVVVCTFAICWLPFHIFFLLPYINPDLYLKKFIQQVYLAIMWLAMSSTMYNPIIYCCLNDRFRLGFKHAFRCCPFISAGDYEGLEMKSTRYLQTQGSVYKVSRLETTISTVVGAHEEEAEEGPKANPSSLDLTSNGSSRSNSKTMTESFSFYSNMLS
Text: as §1, §2

[3] = molecular target: T3, human receptors NK2 (Homo sapiens, UniProt P21452); test: Affinity for the human NK2 receptor on transfected CHO-K1 cells; format: binding; conditions: CHO-K1 cells transfected with NK2 receptor
T3 construct: expressed in transfected cells; host or cells: CHO-K1
T3 sequence (P21452 1-398): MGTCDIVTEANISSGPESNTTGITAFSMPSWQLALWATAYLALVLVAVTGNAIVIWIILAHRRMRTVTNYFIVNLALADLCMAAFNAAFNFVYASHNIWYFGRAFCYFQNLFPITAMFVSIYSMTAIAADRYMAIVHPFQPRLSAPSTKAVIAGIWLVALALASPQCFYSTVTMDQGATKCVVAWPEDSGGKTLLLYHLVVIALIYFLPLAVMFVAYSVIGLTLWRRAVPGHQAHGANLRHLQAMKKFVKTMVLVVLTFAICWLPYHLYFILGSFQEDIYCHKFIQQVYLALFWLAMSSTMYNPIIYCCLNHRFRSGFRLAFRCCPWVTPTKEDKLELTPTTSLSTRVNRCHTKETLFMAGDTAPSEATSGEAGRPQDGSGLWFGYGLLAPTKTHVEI
Text: (§3) The affinity for the human receptors NK1 and NK2 was studied on the human lymphoblasts IM-9 specifically expressing the NK1 receptor as described by D. G. PAYAN et al. (J. Biol. Chem. 1986, 261, 14321-14329)and on CHO-K1 cells transfected with the NK2 receptor based on the "CellPhect transfection" kit (Pharmacia).

[4] = molecular target: T4, NK2 receptors (Oryctolagus cuniculus, UniProt P79218); test: Isolated smooth muscle: endothelium-free rabbit pulmonary artery (RPA), NK2-mediated contraction; format: biochemical
T4 construct: three preparations isolated from smooth muscle were used; from tissue; host or cells: endothelium-free rabbit pulmonary artery
T4 sequence (P79218 1-384): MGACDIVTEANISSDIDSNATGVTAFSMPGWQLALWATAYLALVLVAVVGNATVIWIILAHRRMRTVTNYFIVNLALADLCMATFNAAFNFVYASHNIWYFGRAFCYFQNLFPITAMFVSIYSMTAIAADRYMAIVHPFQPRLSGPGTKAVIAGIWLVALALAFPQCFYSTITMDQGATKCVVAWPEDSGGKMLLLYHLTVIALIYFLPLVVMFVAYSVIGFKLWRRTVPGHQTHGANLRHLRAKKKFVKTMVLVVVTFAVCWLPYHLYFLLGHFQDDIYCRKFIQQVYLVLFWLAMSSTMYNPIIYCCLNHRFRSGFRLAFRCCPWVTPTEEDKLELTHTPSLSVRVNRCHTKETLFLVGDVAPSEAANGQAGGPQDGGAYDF
Text: as §1, §2

[5] = molecular target: T5, human receptors NK1 (Homo sapiens, UniProt P25103); test: Affinity for the human NK1 receptor on IM-9 lymphoblasts; format: binding; conditions: human lymphoblasts IM-9 expressing NK1
T5 construct: human lymphoblasts IM-9 specifically expressing the NK1 receptor; endogenous in cells; host or cells: IM-9 human lymphoblasts
T5 sequence (P25103 whole entry): as the sequence (G1SEI7 1-407) above, with F12S, D189N, A369P, E371D, N376T, G386C, N391D, Y402S, M405V counted along it
Text: as §3

[6] = system: guinea pigs; test: Inhibition of plasma extravasation induced by substance P in guinea pig bladder; format: in vivo; conditions: 0.1 mg/kg intravenously 5 minutes before substance P (1 μg/kg iv)
Protocol: The effect of the compounds on plasma extravasation caused by intravenous injection of substance P (1 μg/kg) in guinea pigs was evaluated on the bladder, according to the method described for rats by C. GARRET et al. (Proc. Natl. Acad. Sci., USA 1991, 88, 10208-20212). Vesical accumulation of Evans blue injected IV at the same time as substance P and 10 minutes before sacrificing, was quantified by spectrophotometry after extraction of the colorant with acetone. The inhibitory activity of the compounds administered intravenously 5 minutes before substance P was expressed as % inhibition compared with a control batch (8 animals per batch).

[7] = system: peritoneal mast cells of male rats; test: Mast cell degranulation in vitro (histamine release); format: cell-based; conditions: rat peritoneal mast cells, 20 min incubation, up to the concentration of 10^-4 M
Protocol: The studies are carried out on peritoneal mast cells of male rats: Sprague-Dawley of mean weight 350 to 400 g and are killed by euthanasia by inhalation of CO2. A peritoneal lavage is carried out with 20 ml of buffer (NaCl 150 mM, KCl 2.7 mM, CaCl2, 0.9 mM, Na2 HPO4, 3 mM, KH2 PO4, 3.5 mM, glucose 5.6 mM, bovine serum albumin 1 mg/ml, pH 6.8).
The lavage liquid is centrifuged at 400 g for 10 min at 4° C. and taken up in a buffer at a density of 2×10^4 mast cells/mi. The compounds are incubated at an increasing concentration for 20 min. The reaction is stopped by placing the tubes on ice and a centrifugation is carried out with 700 g for 10 min at 4° C. The supernatant and the pellet are tested by fluorimetry after condensation with o-phthaldehyde. The histamine released from the cells into the supernatant thus assayed is expressed as percentage of the total histamine content of the cells.

[8] = system: mice (CD1 male); test: animal or person; format: in vivo; conditions: iv
[9] = system: male Hartley guinea pigs; test: Inhibition of bronchoconstriction induced by substance P in guinea pigs; format: in vivo; conditions: dose of 1 μmol/kg i.v.
Protocol: The study is carried out on male Hartley guinea pigs (Charles River) of a mean weight of 300 to 400 g. […] The animals were pretreated with pyrilamine (1 mg/kg iv), propanolol (1 mg/kg iv). The criterion for assessing the bronchoconstriction is the increase in the tracheal insufflation pressure (TIP) induced by the injection of substance P via the iv route at the dose of 2 nM/kg iv, each animal being its own control. The injection of the test product being carried out relative to the time TO injection of the product. The results are expressed as percentage inhibition of the substance P-induced bronchoconstriction, this percentage being calculated according to the following formula: (ΔTIP before product-ΔTIP after product)/ΔTIP before product (expressed as percentage).

SMILES | NK3 (VPR) pA2 [1] | NK1 (VCL) pA2 [2] | Ki [3] | NK2 (APL) pA2 [4] | Ki [5] | % inhibition of substance P-induced plasma extravasation (bladder) [6] | Mast cell degranulation (histamine release) [7] | ED50 (dose which increases the reaction time by 50%) ([8]; mouse, in vivo) | % Inhibition of substance P-induced bronchoconstriction [9] | ED50 ([8]; Mus musculus, read-out: ED50 (dose which increases the reaction time by 50%))
CN(Cc1ccccc1)C(=O)C(CC1CCc2ccccc2C1)NC(=O)C1CC(O)CN1C(=O)c1cn(CCCCc2nn[n-]n2)c2ccccc12.[K+] (mixture of isomers) [Example 3, {1-[4-(1H-tetrazol-5-yl)butyl]indol-3-yl}carbonyl-Hyp-Thn-NMeBzl, potassiu m salt] | 5.87 | 7.87 | 1.4 µM | 5.87 | 0.014 µM |  |  |  |  | 
CN(Cc1ccccc1)C(=O)C(Cc1ccc2ccccc2c1)NC(=O)C1CC(O)CN1C(=O)c1cn(CCCCc2nn[n-]n2)c2ccccc12.[K+] (stereo not drawn) [Example 1, {1-[4-(1H-tetrazol-5-yl)butyl]indol-3-yl}carbonyl-Hyp-Nal-NMeBzl, potassiu m salt] | 4.96 | 9.57 | 2.4 µM | 5.57 |  | 56% | does not cause mast cell degranulation | 0.018 mg/kg | 95% | 
CN(Cc1ccccc1)C(=O)C(Cc1ccc2c(c1)CCCC2)NC(=O)C1CC(O)CN1C(=O)c1cn(CCCCc2nn[n-]n2)c2ccccc12.[K+] (stereo not drawn) [Example 2, {1-[4-(1H-tetrazol-5-yl)butyl]indol-3-yl}carbonyl-Hyp-Tna-NMeBzl, potassiu m salt] | 5.87 | 8.17 | 3.6 µM | 6.47 | 0.014 µM |  |  |  |  | 
CN(Cc1ccccc1)C(=O)C(Cc1ccc2ccccc2c1)NC(=O)C1CC(O)CN1C(=O)c1cn(Cc2nn[n-]n2)c2ccccc12.[K+] (stereo not drawn) [Example 4, {1-[(1H-tetrazol-5-yl)methyl]indol-3-yl}carbonyl-Hyp-Nal-NMeBzl,potassium salt] | 5.84 | 8.14 | > 1 µM |  | 0.00078 µM |  |  |  | 61% | 
CN(Cc1ccccc1)C(=O)C(Cc1ccc2ccccc2c1)NC(=O)C1CC(O)CN1C(=O)c1cn(CCc2nn[nH]n2)c2ccccc12 (stereo not drawn) [Example 5, {1-[2-(1H-tetrazol-5-yl)ethyl]indol-3-yl}carbonyl-Hyp-Nal-NMeBzl, potassiu m salt] |  |  | > 10 µM |  | 0.00063 µM |  |  |  |  | 
CN(Cc1ccccc1)C(=O)C(Cc1ccc2ccccc2c1)NC(=O)C1CC(O)CN1C(=O)c1cn(CCCc2nn[n-]n2)c2ccccc12.[K+] (stereo not drawn) [Example 6, [1-[3-(1H-tetrazol-5-yl)propyl]indol-3-yl}carbonyl-Hyp-Nal-NMeBzl, potassium salt] |  | 8.46 | > 1 µM | 5.20 | 0.0012 µM |  |  |  | 60% | 
CN(Cc1ccccc1)C(=O)C(Cc1ccc2ccccc2c1)NC(=O)C1CC(O)CN1C(=O)c1cn(CCCCCc2nn[n-]n2)c2ccccc12.[K+] (stereo not drawn) [Example 7, {1-[5-(1H-tetrazol-5-yl)pentyl]indol-3-yl}carbonyl-Hyp-Nal-NMeBzl, potassium salt] |  | 7.88 | 10 µM |  | 0.0059 µM |  |  |  | 58% | 
CN(Cc1ccccc1)C(=O)C(Cc1cccs1)NC(=O)C1CC(O)CN1C(=O)c1cn(CCCCc2nn[nH]n2)c2ccccc12 (stereo not drawn) [Example 8, {1-[4-(1H-tetrazol-5-yl)butyl]indol-3-yl}carbonyl-Hyp-Thi-NMeBzl, potassiu m salt] |  |  | > 1 µM |  | 0.11 µM |  |  |  |  | 
CN(Cc1ccccc1)C(=O)C(Cc1ccc(Cl)cc1)NC(=O)C1CC(O)CN1C(=O)c1cn(CCCCc2nn[nH]n2)c2ccccc12 (stereo not shown) [Example 9, {1-[4-(1H-tetrazol-5-yl)butyl]indol-3-yl}carbonyl-Hyp-(4-chloro)Phe-NMeBz potassium salt] |  |  | 3.9 µM |  | 0.022 µM |  |  |  |  | 
COc1ccc(CC(NC(=O)C2CC(O)CN2C(=O)c2cn(CCCCc3nn[nH]n3)c3ccccc23)C(=O)N(C)Cc2ccccc2)cc1OC (stereo not shown) [Example 10, {1-[4-(1H-tetrazol-5-yl)butyl]indol-3-yl}carbonyl-Hyp-(3,4-dimethoxy)Phe-NMeBzl, potassium salt] |  |  | > 10 µM |  | 0.18 µM |  |  |  |  | 
CN(Cc1ccccc1)C(=O)C(CC1CCCCC1)NC(=O)C1CC(O)CN1C(=O)c1cn(CCCCc2nn[nH]n2)c2ccccc12 (stereo not drawn) [Example 11, {1-[4-(1H-tetrazol-5-yl)butyl]indol-3-yl}carbonyl-Hyp-Cha-NMeBzl, potassium salt] |  |  | > 1 µM |  | 0.052 µM |  |  |  |  | 
CN1CC[C@]23c4c5ccc(O)c4O[C@H]2[C@@H](O)C=C[C@H]3[C@H]1C5 [morphine, reference compound] |  |  |  |  |  |  |  |  |  | 0.3 mg/kg
